Tests used:
[1] = biological target: SHP-2 enzyme (Met1-Leu525) (Homo sapiens (Human), UniProt Q06124); test: SHP2 inhibition enzymatic assay; format: biochemical; settings: 0.5 nM SHP-2 activated by 500 nM IRS1 peptide, 75 μM DiFMUP substrate; read-out: SHP2wt-IC50
Summary of the method: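 SHP-2 (Met1-Leu525), 0.5 nM, activated with 500 nM IRS1 bis-phosphopeptide, preincubated 30 min with compounds in HEPES pH 7.2 buffer with 5 mM DTT. 75 μM DiFMUP added for 30 min at room temperature, stopped with bpV; fluorescence read. IC50 from four-parameter logistic fit of % inhibition.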

[2] = system: ERK phosphorylation in KYSE-520 cells; test: Phospho-ERK cellular assay; format: cell-based; settings: Homo sapiens, KYSE-520, 2 h, KYSE-520 cells, 2 h at 37° C., phospho-ERK1/2 (Thr202/Tyr204) TR-FRET; read-out: PERK IC50
Summary of the method: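 TR-FRET read-out of ERK1/2 Thr202/Tyr204 phosphorylation was taken after overnight antibody incubation at room temperature. Before that, KYSE-520 cells were treated 2 h at 37 °C with compound dilutions and lysed 30 min. Percent inhibition relative to vehicle and cell-free wells was fitted four-parametrically to give IC50.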

Chain of SHP-2 enzyme (Met1-Leu525) (Q06124 1-525): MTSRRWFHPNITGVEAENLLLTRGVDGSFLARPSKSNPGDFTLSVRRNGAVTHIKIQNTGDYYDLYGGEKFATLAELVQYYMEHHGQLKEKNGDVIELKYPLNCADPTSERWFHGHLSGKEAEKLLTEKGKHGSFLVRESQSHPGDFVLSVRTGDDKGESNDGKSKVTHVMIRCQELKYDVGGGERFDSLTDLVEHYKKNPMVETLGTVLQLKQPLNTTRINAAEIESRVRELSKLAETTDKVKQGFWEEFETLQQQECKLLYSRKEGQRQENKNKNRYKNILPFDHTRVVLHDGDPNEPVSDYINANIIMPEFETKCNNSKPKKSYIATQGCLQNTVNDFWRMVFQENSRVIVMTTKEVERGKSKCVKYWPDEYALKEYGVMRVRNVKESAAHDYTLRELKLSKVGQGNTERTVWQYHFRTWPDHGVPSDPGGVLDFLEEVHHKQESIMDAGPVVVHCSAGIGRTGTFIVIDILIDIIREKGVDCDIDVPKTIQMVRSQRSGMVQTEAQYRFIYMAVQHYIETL

SMILES | IC50 [1] [nM] | IC50 [2] [nM]
NC[C@]1(c2ccccc2F)[C@@H]2CCN(c3cnc4c(-c5ccc(O)nc5C(F)(F)F)n[nH]c4n3)C[C@@H]21 [Example 345, 5-(6-((1S,6R,7R)-7-(aminomethyl)-7-(2-fluorophenyl)-3-azabicyclo[4.1.0]heptan-3-yl)-1H-pyrazolo[3,4-b]pyrazin-3-yl)-6-(trifluoromethyl)pyridin-2-ol] | < 500 | > 5000
NC[C@]1(c2ccccc2F)[C@@H]2CCN(c3cnc4c(-c5ccc(S(N)(=O)=O)cc5Cl)n[nH]c4n3)C[C@@H]21 [Example 346, 4-(6-((1S,6R,7R)-7-(aminomethyl)-7-(2-fluorophenyl)-3-azabicyclo[4.1.0]heptan-3-yl)-1H-pyrazolo[3,4-b]pyrazin-3-yl)-3-chlorobenzenesulfonamide] | < 500 | > 5000
CN1Cc2c(ccc(-c3n[nH]c4nc(N5CC[C@@H]6[C@H](C5)[C@@]6(CN)c5ccccc5F)cnc34)c2Cl)C1=O [Example 350, 5-(6-((1S,6R,7R)-7-(aminomethyl)-7-(2-fluorophenyl)-3-azabicyclo[4.1.0]heptan-3-yl)-1H-pyrazolo[3,4-b]pyrazin-3-yl)-4-chloro-2-methylisoindolin-1-one] | < 500 | < 1000
NC[C@]1(c2ccccc2F)[C@@H]2CCN(c3cnc4c(-c5ccc6c(=O)n(CCO)ccc6c5F)n[nH]c4n3)C[C@@H]21 [Example 351, 6-(6-((1S,6R,7R)-7-(aminomethyl)-7-(2-fluorophenyl)-3-azabicyclo[4.1.0]heptan-3-yl)-1H-pyrazolo[3,4-b]pyrazin-3-yl)-5-fluoro-2-(2-hydroxyethyl)isoquinolin-1(2H)-one] | < 500 | < 1000
Cn1c(=O)oc2cc(-c3n[nH]c4nc(N5CC[C@@H]6[C@H](C5)[C@@]6(CN)c5ccccc5F)cnc34)ccc21 [Example 353, 6-(6-((1S,6R,7R)-7-(aminomethyl)-7-(2-fluorophenyl)-3-azabicyclo[4.1.0]heptan-3-yl)-1H-pyrazolo[3,4-b]pyrazin-3-yl)-3-methylbenzo[d]oxazol-2(3H)-one] | < 500 | < 1000
NC[C@]1(c2ccccc2F)[C@@H]2CCN(c3cnc4c(-c5ccc(F)c(O)c5F)n[nH]c4n3)C[C@@H]21 [Example 355, 3-(6-((1S,6R,7R)-7-(aminomethyl)-7-(2-fluorophenyl)-3-azabicyclo[4.1.0]heptan-3-yl)-1H-pyrazolo[3,4-b]pyrazin-3-yl)-2,6-difluorophenol] | < 500 | < 1000
NC[C@]1(c2ccccc2F)[C@@H]2CCN(c3cnc4c(-c5ccc(O)c(C(F)(F)F)c5)n[nH]c4n3)C[C@@H]21 [Example 360, 4-(6-((1S,6R,7R)-7-(aminomethyl)-7-(2-fluorophenyl)-3-azabicyclo[4.1.0]heptan-3-yl)-1H-pyrazolo[3,4-b]pyrazin-3-yl)-2-(trifluoromethyl)phenol] | < 500 | < 1000
NC[C@]1(c2ccccc2F)[C@@H]2CCN(c3cnc4c(-c5ccc6nn(CC(F)(F)F)cc6c5Cl)n[nH]c4n3)C[C@@H]21 [Example 361, ((1S,6R,7R)-3-(3-(4-chloro-2-(2,2,2-trifluoroethyl)-2H-indazol-5-yl)-1H-pyrazolo[3,4-b]pyrazin-6-yl)-7-(2-fluorophenyl)-3-azabicyclo[4.1.0]heptan-7-yl)methanamine] | < 500 | < 1000
CN1C(=O)C(F)(F)c2c1ccc(-c1n[nH]c3nc(N4CC[C@@H]5[C@H](C4)[C@@]5(CN)c4ccccc4F)cnc13)c2Cl [Example 362, 5-(6-((1S,6R,7R)-7-(aminomethyl)-7-(2-fluorophenyl)-3-azabicyclo[4.1.0]heptan-3-yl)-1H-pyrazolo[3,4-b]pyrazin-3-yl)-4-chloro-3,3-difluoro-1-methylindolin-2-one] | < 500 | < 1000
Cn1cc2ccc(-c3n[nH]c4nc(N5CC[C@@H]6[C@H](C5)[C@@]6(CN)c5ccccc5F)cnc34)c(Cl)c2n1 [Example 363, ((1S,6R,7R)-3-(3-(7-chloro-2-methyl-2H-indazol-6-yl)-1H-pyrazolo[3,4-b]pyrazin-6-yl)-7-(2-fluorophenyl)-3-azabicyclo[4.1.0]heptan-7-yl)methanamine] | < 500 | < 1000

The remaining lines, values ahead:

IC50 [1] [nM] | IC50 [2] [nM] | SMILES
< 500 | < 1000 | Cn1cc2c(Cl)c(-c3n[nH]c4nc(N5CC[C@@H]6[C@H](C5)[C@@]6(CN)c5cc(F)cc(F)c5)n(C)c(=O)c34)ccc2n1 [Example 344, 6-((1S,6R,7R)-7-(aminomethyl)-7-(3,5-difluorophenyl)-3-azabicyclo[4.1.0]heptan-3-yl)-3-(4-chloro-2-methyl-2H-indazol-5-yl)-5-methyl-1,5-dihydro-4H-pyrazolo[3,4-d]pyrimidin-4-one]
< 500 | > 5000 | Cn1cc(-c2n[nH]c3nc(N4CC[C@@H]5[C@H](C4)[C@@]5(CN)c4ccccc4F)cnc23)cn1 [Example 347, ((1S,6R,7R)-7-(2-fluorophenyl)-3-(3-(1-methyl-1H-pyrazol-4-yl)-1H-pyrazolo[3,4-b]pyrazin-6-yl)-3-azabicyclo[4.1.0]heptan-7-yl)methanamine]
< 500 | < 1000 | Cc1c(-c2n[nH]c3nc(N4CC[C@@H]5[C@H](C4)[C@@]5(CN)c4ccccc4F)cnc23)cnn1C [Example 348, ((1S,6R,7R)-3-(3-(1,5-dimethyl-1H-pyrazol-4-yl)-1H-pyrazolo[3,4-b]pyrazin-6-yl)-7-(2-fluorophenyl)-3-azabicyclo[4.1.0]heptan-7-yl)methanamine]
< 500 | < 1000 | Cc1nc2c(Cl)c(-c3n[nH]c4nc(N5CC[C@@H]6[C@H](C5)[C@@]6(CN)c5ccccc5F)cnc34)ccc2n1C [Example 349, ((1S,6R,7R)-3-(3-(4-chloro-1,2-dimethyl-1H-benzo[d]imidazol-5-yl)-1H-pyrazolo[3,4-b]pyrazin-6-yl)-7-(2-fluorophenyl)-3-azabicyclo[4.1.0]heptan-7-yl)methanamine]
< 500 | < 1000 | NC[C@]1(c2ccccc2F)[C@@H]2CCN(c3cnc4c(-c5cc(F)c(O)cc5F)n[nH]c4n3)C[C@@H]21 [Example 354, 4-(6-((1S,6R,7R)-7-(aminomethyl)-7-(2-fluorophenyl)-3-azabicyclo[4.1.0]heptan-3-yl)-1H-pyrazolo[3,4-b]pyrazin-3-yl)-2,5-difluorophenol]
< 500 | > 5000 | CN(C#N)C(=O)c1ccc(-c2n[nH]c3nc(N4CC[C@@H]5[C@H](C4)[C@@]5(CN)c4ccccc4F)cnc23)c(Cl)c1 [Example 356, 4-(6-((1S,6R,7R)-7-(aminomethyl)-7-(2-fluorophenyl)-3-azabicyclo[4.1.0]heptan-3-yl)-1H-pyrazolo[3,4-b]pyrazin-3-yl)-3-chloro-N-cyano-N-methylbenzamide]
< 500 | < 1000 | CC(=O)Oc1c(F)cc(-c2n[nH]c3nc(N4CC[C@@H]5[C@H](C4)[C@@]5(CN)c4ccccc4F)cnc23)cc1F [Example 359, 4-(6-((1S,6R,7R)-7-(aminomethyl)-7-(2-fluorophenyl)-3-azabicyclo[4.1.0]heptan-3-yl)-1H-pyrazolo[3,4-b]pyrazin-3-yl)-2,6-difluorophenyl acetate]

— US20240109900A1, “AZABICYCLIC SHP2 INHIBITORS” (IRBM S.P.A., priority 2021, published 2024)
